Laboratory results: the supplement of paper PMC11208160

Assay: recombinant UMI read abundance after kanamycin selection (control-corrected) (log10(CPM+1)); higher = more efficient recombination; extreme values may be limits of the assay; sequences stand for … in AGTGCAGAGAAAATCGGCCAGTTTTCTCTGCCTGCAGTCCGCATGCCGTGGGACCCCTTGGGTTCTAACCTGTTGCCTAGATTTATGCAGCGGACTGCCTTTCTCCCAAAGTGATAAACCGG…AGGTTGGTTTCACT; site = the 11-nt donor
Outline: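 After plating on IPTG (0.07 mM) plus kanamycin, or unselected, in two replicates, recombinant UMIs were PCR-amplified across the donor–target junction and sequenced. The cells were Escherichia coli co-electroporated with a UMI-tagged donor and donor-binding-loop pair library and a target plasmid with a fixed target and T7-inducible IS621 bridge recombinase. Values are log10(CPM+1), with CPM averaged over replicates and scaled by control-derived factors.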
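Further: IS621 bridge recombinase in Escherichia coli cells against a fixed T5 target plasmid.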

| Sequence | recombinant UMI read abundance (log10) |
| --- | --- |
| AGAGATTCATGGACCGGTTTTCCCGGTAATCCGTATTTGGC (site AGAGATTCTGC) | 2.95 |
| AGAGCTTCATGGACCGGTTTTCCCGGTAATCCGTATTTGGG (site AGAGCTTCTCC) | 1.06 |
| AGAGGAGCATGGACCGGTTTTCCCGGTAATCCGTATTTGGC (site AGAGGAGCTGC) | 1.01 |
| AGAGGATCATGGACCGGTTTTCCCGGTAATCCGTATTTGCA (site ACAGTATCTTG) | 1.59 |
| AGAGGATCATGGACCGGTTTTCCCGGTAATCCGTATTTGCA (site AGAGGATCTTG) | 2.04 |
| AGAGGCACATGGACCGGTTTTCCCGGTAATCCGTATTTGAC (site AGAGGCACTGT) | 2.32 |
| AGAGTGGCATGGACCGGTTTTCCCGGTAATCCGTATTTGCT (site AGAGTGGCTAG) | 2.62 |
| AGAGTGTCATGGACCGGTTTTCCCGGTAATCCGTATTTGCA (site ACAGTATCTTG) | 2.56 |
| AGAGTGTCATGGACCGGTTTTCCCGGTAATCCGTATTTGCA (site AGAGTGTCTTG) | 3.45 |
| AGATAATCATGGACCGGTTTTCCCGGTAATCCGTATTTGCT (site AGATAATCTAG) | 3.3 |
| AGATCATCATGGACCGGTTTTCCCGGTAATCCGTATTTGCT (site AGATCATCTAG) | 1.56 |
| AGATCATCATGGACCGGTTTTCCCGGTAATCCGTATTTGCT (site CGATCATCTAG) | 0.477 |
| AGATCATCATGGACCGGTTTTCCCGGTAATCCGTATTTGCT (site GGATCATCTAG) | 0.911 |
| AGATCATCATGGACCGGTTTTCCCGGTAATCCGTATTTGCT (site TGATCATCTAG) | 1.75 |
| AGATGGGCATGGACCGGTTTTCCCGGTAATCCGTATTTGAG (site AGATGGGCTCT) | 1.06 |
| AGATTAGCATGGACCGGTTTTCCCGGTAATCCGTATTTGAC (site AGATTAGCTGT) | 2.75 |
| AGATTATCATGGACCGGTTTTCCCGGTAATCCGTATTTGGA (site AGATTATCTTC) | 1.9 |
| AGATTCTCATGGACCGGTTTTCCCGGTAATCCGTATTTGTG (site AGATTCTCTCA) | 2.63 |
| AGCAGAGCATGGACCGGTTTTCCCGGTAATCCGTATTTGAG (site AGCAGAGCTCT) | 2.54 |
| AGCAGTACATGGACCGGTTTTCCCGGTAATCCGTATTTGAT (site AGCAGTACTAT) | 1.79 |
| AGCATTGCATGGACCGGTTTTCCCGGTAATCCGTATTTGAA (site AGCATTGCTTT) | 2.4 |
| AGCATTTCATGGACCGGTTTTCCCGGTAATCCGTATTTGAC (site AGCATTTCTGT) | 0.795 |
| AGCATTTCATGGACCGGTTTTCCCGGTAATCCGTATTTGAC (site AGCCTTTCTGT) | 0 |
| AGCATTTCATGGACCGGTTTTCCCGGTAATCCGTATTTGAC (site AGCGTTTCTGT) | 0 |
| AGCATTTCATGGACCGGTTTTCCCGGTAATCCGTATTTGAC (site AGCTTTTCTGT) | 0.236 |

| Sequence | recombinant UMI read abundance (log10) |
| --- | --- |
| AGCCACCCATGGACCGGTTTTCCCGGTAATCCGTATTTGTT (site AGCCACCCTAA) | 0.0153 |
| AGCCACCCATGGACCGGTTTTCCCGGTAATCCGTATTTGTT (site CGCCACCCTAA) | 0.026 |
| AGCCACCCATGGACCGGTTTTCCCGGTAATCCGTATTTGTT (site GGCCACCCTAA) | 0 |
| AGCCACCCATGGACCGGTTTTCCCGGTAATCCGTATTTGTT (site TGCCACCCTAA) | 0 |
| AGCCAGACATGGACCGGTTTTCCCGGTAATCCGTATTTGCA (site AGCCAGACTTG) | 2.18 |
| AGCCAGACATGGACCGGTTTTCCCGGTAATCCGTATTTGCA (site AGGAAGACTTG) | 0 |
| AGCCCAGCATGGACCGGTTTTCCCGGTAATCCGTATTTGTT (site AGCCAAGCTAA) | 0.0134 |
| AGCCCAGCATGGACCGGTTTTCCCGGTAATCCGTATTTGTT (site AGCCCAGCTAA) | 0.602 |
| AGCCCAGCATGGACCGGTTTTCCCGGTAATCCGTATTTGTT (site AGCCGAGCTAA) | 0.0227 |
| AGCCCAGCATGGACCGGTTTTCCCGGTAATCCGTATTTGTT (site AGCCTAGCTAA) | 0.0205 |
| AGCCCCGCATGGACCGGTTTTCCCGGTAATCCGTATTTGTT (site AGCCCCGCTAA) | 1.12 |
| AGCCCGCCATGGACCGGTTTTCCCGGTAATCCGTATTTGGG (site AGCCCGCCTCC) | 0.00589 |
| AGCCGGCCATGGACCGGTTTTCCCGGTAATCCGTATTTGAT (site AGCCGGCCTAT) | 0.00427 |
| AGCCGTACATGGACCGGTTTTCCCGGTAATCCGTATTTGCT (site AGCCGTACTAG) | 1.74 |
| AGCCGTACATGGACCGGTTTTCCCGGTAATCCGTATTTGCT (site CGCCGTACTAG) | 0.697 |
| AGCCGTACATGGACCGGTTTTCCCGGTAATCCGTATTTGCT (site GGCCGTACTAG) | 0 |
| AGCCGTACATGGACCGGTTTTCCCGGTAATCCGTATTTGCT (site TGCCGTACTAG) | 1.18 |
| AGCCTAACATGGACCGGTTTTCCCGGTAATCCGTATTTGGG (site AGCCTAACTCC) | 0.0227 |
| AGCCTAACATGGACCGGTTTTCCCGGTAATCCGTATTTGTT (site AGCCTAACTAA) | 0.00538 |
| AGCCTAACATGGACCGGTTTTCCCGGTAATCCGTATTTGTT (site AGCCTACCTAA) | 0.024 |
| AGCCTAACATGGACCGGTTTTCCCGGTAATCCGTATTTGTT (site AGCCTAGCTAA) | 0.0126 |
| AGCCTAACATGGACCGGTTTTCCCGGTAATCCGTATTTGTT (site AGCCTATCTAA) | 0.00871 |
| AGCCTAGCATGGACCGGTTTTCCCGGTAATCCGTATTTGTT (site AACCTAGCTAA) | 0.00661 |
| AGCCTAGCATGGACCGGTTTTCCCGGTAATCCGTATTTGTT (site ACCCTAGCTAA) | 0.0311 |
| AGCCTAGCATGGACCGGTTTTCCCGGTAATCCGTATTTGTT (site AGACTAGCTAA) | 0.00397 |

| Sequence | recombinant UMI read abundance (log10) |
| --- | --- |
| AGCCTAGCATGGACCGGTTTTCCCGGTAATCCGTATTTGTT (site AGCATAGCTAA) | 0.00842 |
| AGCCTAGCATGGACCGGTTTTCCCGGTAATCCGTATTTGTT (site AGCCAAGCTAA) | 0.0196 |
| AGCCTAGCATGGACCGGTTTTCCCGGTAATCCGTATTTGTT (site AGCCCAGCTAA) | 0.00418 |
| AGCCTAGCATGGACCGGTTTTCCCGGTAATCCGTATTTGTT (site AGCCGAGCTAA) | 0.0175 |
| AGCCTAGCATGGACCGGTTTTCCCGGTAATCCGTATTTGTT (site AGCCTAACTAA) | 0.0384 |
| AGCCTAGCATGGACCGGTTTTCCCGGTAATCCGTATTTGTT (site AGCCTACCTAA) | 0.0078 |
| AGCCTAGCATGGACCGGTTTTCCCGGTAATCCGTATTTGTT (site AGCCTAGCTAA) | 0.0154 |
| AGCCTAGCATGGACCGGTTTTCCCGGTAATCCGTATTTGTT (site AGCCTAGCTAC) | 0 |
| AGCCTAGCATGGACCGGTTTTCCCGGTAATCCGTATTTGTT (site AGCCTAGCTAG) | 0 |
| AGCCTAGCATGGACCGGTTTTCCCGGTAATCCGTATTTGTT (site AGCCTAGCTAT) | 0.0124 |
| AGCCTAGCATGGACCGGTTTTCCCGGTAATCCGTATTTGTT (site AGCCTAGCTCA) | 0.0329 |
| AGCCTAGCATGGACCGGTTTTCCCGGTAATCCGTATTTGTT (site AGCCTAGCTGA) | 0 |
| AGCCTAGCATGGACCGGTTTTCCCGGTAATCCGTATTTGTT (site AGCCTAGCTTA) | 0.00455 |
| AGCCTAGCATGGACCGGTTTTCCCGGTAATCCGTATTTGTT (site AGCCTATCTAA) | 0.00805 |
| AGCCTAGCATGGACCGGTTTTCCCGGTAATCCGTATTTGTT (site AGCCTCGCTAA) | 0.0288 |
| AGCCTAGCATGGACCGGTTTTCCCGGTAATCCGTATTTGTT (site AGCCTGGCTAA) | 0.0296 |
| AGCCTAGCATGGACCGGTTTTCCCGGTAATCCGTATTTGTT (site AGCCTTGCTAA) | 0.0186 |
| AGCCTAGCATGGACCGGTTTTCCCGGTAATCCGTATTTGTT (site AGCGTAGCTAA) | 0.00795 |
| AGCCTAGCATGGACCGGTTTTCCCGGTAATCCGTATTTGTT (site AGCTTAGCTAA) | 0.0228 |
| AGCCTAGCATGGACCGGTTTTCCCGGTAATCCGTATTTGTT (site AGGCTAGCTAA) | 0.00253 |
| AGCCTAGCATGGACCGGTTTTCCCGGTAATCCGTATTTGTT (site AGTCTAGCTAA) | 0.0113 |
| AGCCTAGCATGGACCGGTTTTCCCGGTAATCCGTATTTGTT (site ATCCTAGCTAA) | 0.0142 |
| AGCCTAGCATGGACCGGTTTTCCCGGTAATCCGTATTTGTT (site CGCCTAGCTAA) | 0.00222 |
| AGCCTAGCATGGACCGGTTTTCCCGGTAATCCGTATTTGTT (site GGCCTAGCTAA) | 0.0159 |
| AGCCTAGCATGGACCGGTTTTCCCGGTAATCCGTATTTGTT (site TGCCTAGCTAA) | 0.00782 |
